Source: patent US20070015771A1, “Lonidamine analogs” (Threshold pharmaceuticals, Inc., priority 2004, published 2007)

Key:
BPH-1 = assay: Antiproliferation assay 3 days, BPH-1 cells; type: cell-based; conditions: 3 day treatment; read-out: BPH-1 cell line IC50
Description: To determine the effect of lonidamine analogs thereof on cell proliferation, the antiproliferative activity of these compounds was tested in a multi-well Alamar Blue based assay (at 3 days). Cell growth in the presence and absence of the test compound was compared, as measured by a fluoresence plate reader at excitation 550 nm and emission 590 nm (see Biosource International Inc., Tech Application Notes, Use of Alamar Blue in the measurement of Cell Viability and Toxity, Determining IC50). The following cell lines were tested: PWR-1E cells ((ATCC CRL-11611), 3500 cells/well/200 μl in Keratinocyte SFM medium (Gibco Products, Invitrogen Corporation, Carlsbad, Calif.)); DU-145 cells ((ATCC HTB-81), 4000 cells/well/200 μl in MEM Eagles medium (ATCC, Manassas, Va.)); PC3 cells ((ATCC CRL-1435), 4000 cells/200 μl in Modified HAM's F12 medium (ATCC, Manassas, Va.)); PNt2 cells ((Sigma-Aldrich, 95012613-1 VL), 4000 cells/well/200 μl in RPMI medium (Gibco Products, Invitrogen Corporation, Carlsbad, Calif.), BPH-1 ((DSMZ ACC-143), 4000 cells/well/200 μl in RPMI medium (Gibco Products, Invitrogen Corporation, Carlsbad, Calif), and NCI-H460 cells ((ATCC HTB-177), 4000 cells/well/200 μl in RPMI medium (Gibco Products, Invitrogen Corporation, Carlsbad, Calif.)). The cells were seeded in a 96 well plate in a medium specified above. After 24 hours, these plates were divided into 2 groups—Control group and 3 day treatment group. A test compound was added to each plate in the treatment groups at concentrations of […] as tabulated in Table 1 (in 2 μl 1 of 100% DMSO, final DMSO concentration 1% in all wells). For NCI-H460 cells, test compounds were added to each plate in the treatment groups at concentrations of 600, 300, 100, 30, 10, 3, and 1 μM (in 2 μl of 100% DMSO, final DMSO concentration 1% in all wells). The cells in the 3 day treatment group were incubated for 3 days, followed by staining with AlamarBlue. In the Control group, AlamarBlue was added to the plate at (i) day 0 and (ii) day 3 and measured to establish the control reading. […] For the NCI-H460 cells, the capacity of the cells to proliferate was measured 5 hours after addition of AlamarBlue using the same fluorescence plate reader as stated above.

PWR-1E cells = assay: BrdU-TUNEL apoptosis assay; type: cell-based; conditions: for % Non-apoptotic cells / % apoptotic cells: PWR-1E cells, 24 h
Description: The effect of compound 1 (as described in Example 1 above) on apoptosis was determined as follows. PWR-1E cells (2×10^5 cells/ml/well) were seeded in a 24 well plate. The culture media were removed after 24 h, the cells were rinsed with PBS buffer (200 μL) and incubated (5 min, 37° C.) with a solution of Guava Viacount CDR in PBS (1:3 v/v). Media (750 μL) containing at least 5% FBS was added to each well, the cells released by repeated pipeting, centrifuged, and the supernatant aspirated. The cells were resuspended in PBS buffer (150 μL) and fixed by incubating (60 min, 4° C.) with 4% paraformaldehyde in PBS. The cells were centrifuged, and the supernatant removed to a final volume of 15 μL. The cell pellets were resuspended, followed by dropwise addition of 200 μl of ice-cold ethanol (70%), and the cells incubated at −20° C. at least for 2 hr. The cells were centrifuged, the supernatant removed, washed, and incubated with the DNA labeling mix (37° C., 60 min). The cells were washed, incubated (30 min) with anti-BrdU staining mix, washed again and analyzed on a Guava PCA-96 system (Guava Technologies, 25801 Industrial Boulevard, Hayward Calif. 94545-2991, USA).

SMILES: O=C(NO)c1nn(Cc2ccc(Cl)cc2Cl)c2ccccc12 [Compound 1]
- IC50 (BPH-1): 17.5 µM
- apoptosis in PWR1E cells (PWR-1E cells; PWR1E cells): induces apoptosis
- % Non-apoptotic cells (PWR-1E cells; 3.1 μM): 90%
- % apoptotic cells (PWR-1E cells; 3.1 μM): 10%
- % Non-apoptotic cells (PWR-1E cells; 6.2 μM): 88%
- % apoptotic cells (PWR-1E cells; 6.2 μM): 12%
- % Non-apoptotic cells (PWR-1E cells; 12.5 μM): 78%
- % apoptotic cells (PWR-1E cells; 12.5 μM): 22%
- % Non-apoptotic cells (PWR-1E cells; 25 μM): 48%
- % apoptotic cells (PWR-1E cells; 25 μM): 52%
